Values of other authors, collected in patent publication US20010006974A1, “COMBINATION THERAPY FOR LYMPHOPROLIFERATIVE DISEASES” (priority 1999, published 2001).

Columns and labels:
bcl-2 = conditions: correlated with theophylline-induced apoptosis
cAMP = conditions: correlated with theophylline-induced apoptosis
[1] = tested on: refractory/relapsed B-CLL; conditions: refractory/relapsed B-CLL patients
refractory lymphomas = conditions: monotherapy; 5 mg/m^2 for 3 consecutive day every 3 weeks

Structure (SMILES) | activity as a single agent (alkylator-refractory CLL) | bcl-2 regulation (bcl-2) | intracellular level of cAMP (cAMP) | response rate [1] | response rate (refractory lymphomas)
Cn1c(=O)c2[nH]cnc2n(C)c1=O [theophylline] | no activity | down-regulation | increased | – | –
OC[C@H]1O[C@@H](n2cnc3c2NC=NC[C@H]3O)C[C@@H]1O [pentostatin, 2′-deoxycoformycin] | – | – | – | 30% | 32%
